Assay results reported in PubChem BioAssay AID624057 (Broad Institute, 2012).
Several values for one entry are separate records, joined by “and”; a condition that tells them apart may be missing. Equal values may be shown once. Activity calls are given as the source filed them. How the calls were made is not given here.

Columns and labels:
[1] = molecular target: Glycogen synthase kinase-3 beta (Homo sapiens) (UniProt P49841); assay: reduction of cellular Tau Ser199 phosphorylation, dose response, cell-based, SH-SY5Y, ELISA, pTau Ser199, powder samples (AID 624057); conditions: SH-SY5Y pTau(Ser199)/total Tau ELISA
[2] = as above; conditions: SH-SY5Y pTau(Ser199)/total Tau ELISA; measured here: cell survival (total Tau) top dose; at 35 µM; stronger effect = lower value

Sequence of Glycogen synthase kinase-3 beta (Homo sapiens) (P49841 whole entry, looked up): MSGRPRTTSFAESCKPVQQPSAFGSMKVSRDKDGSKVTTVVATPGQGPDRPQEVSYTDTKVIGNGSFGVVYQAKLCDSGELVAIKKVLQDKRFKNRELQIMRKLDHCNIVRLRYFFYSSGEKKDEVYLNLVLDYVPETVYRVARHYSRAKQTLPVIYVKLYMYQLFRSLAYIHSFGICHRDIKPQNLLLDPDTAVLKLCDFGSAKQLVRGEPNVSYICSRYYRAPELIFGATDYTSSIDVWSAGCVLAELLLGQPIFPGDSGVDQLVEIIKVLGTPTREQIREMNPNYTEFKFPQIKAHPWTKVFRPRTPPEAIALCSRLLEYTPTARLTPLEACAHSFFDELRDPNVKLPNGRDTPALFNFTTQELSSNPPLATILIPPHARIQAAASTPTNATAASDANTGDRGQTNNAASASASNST

| SMILES | IC50 [1] | viability [2] |
| --- | --- | --- |
| CSc1ccccc1C1C2=C(CC(C)(C)CC2=O)Nc2n[nH]c(C)c21 (stereo not drawn) | 2850 nM | 106% |
| Cc1[nH]nc2c1C(c1cccc3nonc13)C1=C(CC(C)(C)CC1=O)N2 (stereo not drawn) | 2270 nM | 112% |
| Cc1[nH]nc2c1[C@@H](c1ccccc1C(F)(F)F)C1=C(CC(C)(C)CC1=O)N2 | 2270 nM | 110% |
| Cc1[nH]nc2c1[C@H](c1ccccc1C(F)(F)F)C1=C(CC(C)(C)CC1=O)N2 | > 35000 nM (inactive) | – |
| COc1ccccc1[C@H]1C2=C(CC(C)(C)CC2=O)Nc2n[nH]c(C(F)(F)F)c21 | > 35000 nM (inactive) | – |
| Cc1[nH]nc2c1C(c1cccc(C#N)c1)C1=C(CC(C)(C)CC1=O)N2 (stereo not drawn) | 2500 nM | 119% |
| COc1ccccc1C1C2=C(CC(C)(C)CC2=O)Nc2n[nH]c(C)c21 (stereo not drawn) | 7100 nM | – |
| COc1ccccc1C1C2=C(CC(C)(C)CC2=O)Nc2n[nH]c(C(F)(F)F)c21 (stereo not drawn) | 2750 nM and 760 nM | – |
| CC1(C)CC(=O)C2=C(C1)Nc1n[nH]c(C(F)(F)F)c1C2(C)c1ccccc1 (stereo not drawn) | 1870 nM | – |
| CC1(C)CC(=O)C2=C(C1)Nc1n[nH]c(C(F)(F)F)c1C2c1cccc(F)c1C(F)(F)F (stereo not drawn) | 1380 nM | 57.1% |
| Cc1[nH]nc2c1C(c1ccccc1C(F)(F)F)C1=C(CC(C)(C)CC1=O)N2 (stereo not drawn) | 4240 nM | – |
| COc1ccccc1[C@@H]1C2=C(CC(C)(C)CC2=O)Nc2n[nH]c(C(F)(F)F)c21 | 560 nM | – |
| CC1(C)CC(=O)C2=C(C1)Nc1n[nH]c(C(F)(F)F)c1C2c1ccccc1 (stereo not drawn) | 510 nM | – |
| CC1(C)CC(=O)C2=C(C1)Nc1n[nH]c(C(F)(F)F)c1C2c1ccccc1C(F)(F)F (stereo not drawn) | 410 nM | – |
| COc1ccccc1[C@@H]1C2=C(CC(C)(C)CC2=O)Nc2n[nH]c(C)c21 | 6570 nM and > 35000 nM (inactive) | – |
| Cc1[nH]nc2c1C(c1cccc(C(F)(F)F)c1)C1=C(CC(C)(C)CC1=O)N2 (stereo not drawn) | 4680 nM | – |
| Cc1[nH]nc2c1C(c1ccccc1F)C1=C(CC(C)(C)CC1=O)N2 (stereo not drawn) | – | 113% |
| Cc1[nH]nc2c1C(c1ccccc1Cl)C1=C(CC(C)(C)CC1=O)N2 (stereo not drawn) | 2490 nM | – |
